In patent US20190134005A1 (BioMarin Pharmaceutical Inc., priority 2016, published 2019) one finds IC50 data, which are given here for 33 compounds.

The target in this experiment is T1, human CGT (Homo sapiens, UniProt Q16880).
T1 sequence (Q16880 21-541): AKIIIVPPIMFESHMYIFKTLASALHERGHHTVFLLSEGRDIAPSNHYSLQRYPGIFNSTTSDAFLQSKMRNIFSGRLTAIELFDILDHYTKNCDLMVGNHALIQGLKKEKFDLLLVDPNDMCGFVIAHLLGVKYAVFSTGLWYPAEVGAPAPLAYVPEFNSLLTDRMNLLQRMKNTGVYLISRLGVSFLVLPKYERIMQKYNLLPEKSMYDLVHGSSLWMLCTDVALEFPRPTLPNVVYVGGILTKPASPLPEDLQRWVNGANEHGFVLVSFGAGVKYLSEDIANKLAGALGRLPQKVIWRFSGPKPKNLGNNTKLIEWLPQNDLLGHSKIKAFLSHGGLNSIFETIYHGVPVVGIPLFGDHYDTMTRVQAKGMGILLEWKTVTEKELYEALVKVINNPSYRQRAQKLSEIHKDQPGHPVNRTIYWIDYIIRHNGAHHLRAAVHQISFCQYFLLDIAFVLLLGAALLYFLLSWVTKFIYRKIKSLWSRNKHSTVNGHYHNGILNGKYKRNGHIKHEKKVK
The experiment can be described thus: Assay 1: CGT Enzymatic Assay (RapidFire/MS/MS, 0.01% Tween 80). The format is biochemical. To be noted: Table 1, Compounds of Formula (I) and Formula (II); CGT enzymatic assay; read-out: IC50.

As a reminder, the IC50 is the concentration that gives 50% inhibition. Take `CCCC[C@H]1N(c2ccc(Cl)cc2)C(=O)N(c2ccc(Cl)cc2)C1(O)c1cccc(C#N)c1` (stereo partly drawn) [Compound 116-2, 3-((5R)-5-butyl-1,3-bis(4-chlorophenyl)-4-hydroxy-2-oxoimidazolidin-4-yl)benzonitrile]: the IC50 is less than 1 µM.
Turning to `CCC1N(c2ccc(Cl)cc2)C(=O)N(c2ccc(Cl)cc2)C1(O)c1cccc(OC(F)F)c1` (stereo not drawn) [Compound 118, 1,3-bis(4-chlorophenyl)-4-(3-(difluoromethoxy)phenyl)-5-ethyl-4-hydroxyimidazolidin-2-one], the IC50 is less than 1 µM.
For the compound `CC[C@@H]1N(c2ccc(Cl)cc2)C(=O)N(c2ccc(Cl)cc2)C1(O)c1cccc(OC(F)F)c1` (stereo partly drawn) [Compound 118-1, (5S)-1,3-bis(4-chlorophenyl)-4-(3-(difluoromethoxy)phenyl)-5-ethyl-4-hydroxyimidazolidin-2-one], the IC50 is less than 1 µM.
The result for `CC[C@H]1N(c2ccc(Cl)cc2)C(=O)N(c2ccc(Cl)cc2)C1(O)c1cccc(OC(F)F)c1` (stereo partly drawn) [Compound 118-2, (5R)-1,3-bis(4-chlorophenyl)-4-(3-(difluoromethoxy)phenyl)-5-ethyl-4-hydroxyimidazolidin-2-one] reads less than 1 µM; that for `CCCC1N(c2ccc(Br)cc2)C(=O)N(c2ccc(Br)cc2)C1(O)c1cccc(Cl)c1` (stereo not drawn) [Compound 119, 1,3-bis(4-bromophenyl)-4-(3-chlorophenyl)-4-hydroxy-5-propylimidazolidin-2-one], less than 1 µM.
Consider `CCC[C@@H]1N(c2ccc(Br)cc2)C(=O)N(c2ccc(Br)cc2)C1(O)c1cccc(Cl)c1` (stereo partly drawn) [Compound 119-1, (5S)-1,3-bis(4-bromophenyl)-4-(3-chlorophenyl)-4-hydroxy-5-propylimidazolidin-2-one], for which the IC50 is less than 1 µM.
The result for `CCC[C@H]1N(c2ccc(Br)cc2)C(=O)N(c2ccc(Br)cc2)C1(O)c1cccc(Cl)c1` (stereo partly drawn) [Compound 119-2, (5R)-1,3-bis(4-bromophenyl)-4-(3-chlorophenyl)-4-hydroxy-5-propylimidazolidin-2-one] reads less than 1 µM; that for `CC1(C)N(c2ccc(Br)cc2)C(=O)N(c2ccc(Br)cc2)C1(O)c1ccccc1` (stereo not drawn) [Compound 120, 1,3-bis(4-bromophenyl)-4-hydroxy-5,5-dimethyl-4-phenylimidazolidin-2-one], less than 1 µM.
Turning to `CC1(c2ccccc2)N(c2ccc(Cl)cc2)C(=O)N(c2ccc(Cl)cc2)C1(O)c1ccccc1` (stereo not drawn) [Compound 121, 1,3-bis(4-chlorophenyl)-4-hydroxy-5-methyl-4,5-diphenylimidazolidin-2-one], the IC50 lay within 1 to 10 µM.
As for `C[C@@]1(c2ccccc2)N(c2ccc(Cl)cc2)C(=O)N(c2ccc(Cl)cc2)[C@]1(O)c1ccccc1` [Compound 121-1, (4S,5S)-1,3-bis(4-chlorophenyl)-4-hydroxy-5-methyl-4,5-diphenylimidazolidin-2-one], the IC50 fell in the range of 10 to 50 µM.
The result for `C[C@@]1(c2ccccc2)N(c2ccc(Cl)cc2)C(=O)N(c2ccc(Cl)cc2)[C@@]1(O)c1ccccc1` [Compound 121-2, (4R,5S)-1,3-bis(4-chlorophenyl)-4-hydroxy-5-methyl-4,5-diphenylimidazolidin-2-one] reads more than 50 µM; that for `C[C@]1(c2ccccc2)N(c2ccc(Cl)cc2)C(=O)N(c2ccc(Cl)cc2)[C@]1(O)c1ccccc1` [Compound 121-3, (4S,5R)-1,3-bis(4-chlorophenyl)-4-hydroxy-5-methyl-4,5-diphenylimidazolidin-2-one], more than 50 µM.
Turning to `C[C@]1(c2ccccc2)N(c2ccc(Cl)cc2)C(=O)N(c2ccc(Cl)cc2)[C@@]1(O)c1ccccc1` [Compound 121-4, (4R,5R)-1,3-bis(4-chlorophenyl)-4-hydroxy-5-methyl-4,5-diphenylimidazolidin-2-one], the IC50 fell in the range of 1 to 10 µM.
The same measure for `CCCC1N(c2ccc(Cl)cc2)C(=O)N(c2ccc(Cl)cc2)C1(O)CCC` (stereo not drawn) [Compound 122, 1,3-bis(4-chlorophenyl)-4-hydroxy-4,5-dipropylimidazolidin-2-one]: 10 to 50 µM; for `CC[C@@H]1N(c2ccc(F)cc2)C(=O)N(c2ccc(F)cc2)C1(O)c1cccc(C#N)c1` (stereo partly drawn) [Compound 123-1, 3-((5S)-5-ethyl-1,3-bis(4-fluorophenyl)-4-hydroxy-2-oxoimidazolidin-4-yl)benzonitrile]: 1 to 10 µM; for `CC[C@H]1N(c2ccc(F)cc2)C(=O)N(c2ccc(F)cc2)C1(O)c1cccc(C#N)c1` (stereo partly drawn) [Compound 123-2, 3-((5R)-5-ethyl-1,3-bis(4-fluorophenyl)-4-hydroxy-2-oxoimidazolidin-4-yl)benzonitrile]: less than 1 µM.
The result for `CC(=O)c1cccc(C2(O)C(C)N(c3ccc(Cl)cc3)C(=O)N2c2ccc(Cl)cc2)c1` (stereo not drawn) [Compound 124, 4-(3-acetylphenyl)-1,3-bis(4-chlorophenyl)-4-hydroxy-5-methylimidazolidin-2-one] reads less than 1 µM.
The result for `CN(C)c1cccc(C2(O)CN(c3ccc(Br)cc3)C(=O)N2c2ccc(Br)cc2)c1` (stereo not drawn) [Compound 125, 1,3-bis(4-bromophenyl)-4-(3-(dimethylamino)phenyl)-4-hydroxyimidazolidin-2-one] reads more than 50 µM; that for `COc1cccc(C2(C)C(O)N(c3ccc(Br)cc3)C(=O)N2c2ccc(Br)cc2)c1` (stereo not drawn) [Compound 126, 1,3-bis(4-bromophenyl)-5-hydroxy-4-(3-methoxyphenyl)-4-methylimidazolidin-2-one], 1 to 10 µM.
In the case of `CC(C)(C)c1cccc(C2(O)CN(c3ccc(Br)cc3)C(=O)N2c2ccc(Br)cc2)c1` (stereo not drawn) [Compound 127, 1,3-bis(4-bromophenyl)-4-(3-(tert-butyl)phenyl)-4-hydroxyimidazolidin-2-one], the IC50 is 10 to 50 µM.
The same measure for `CC(C)(C)c1cccc(C2(O)CN(c3ccc(Cl)cc3)C(=O)N2c2ccc(Cl)cc2)c1` (stereo not drawn) [Compound 128, 4-(3-(tert-butyl)phenyl)-1,3-bis(4-chlorophenyl)-4-hydroxyimidazolidin-2-one]: 10 to 50 µM.
The result for `CC1N(c2ccc(Cl)cc2)C(=O)N(c2ccc(Cl)cc2)C1(O)c1cccc(OC(F)(F)F)c1` (stereo not drawn) [Compound 129, 1,3-bis(4-chlorophenyl)-4-hydroxy-5-methyl-4-(3-(trifluoromethoxy)phenyl)imidazolidin-2-one] reads less than 1 µM; that for `C[C@H]1N(c2ccc(Cl)cc2)C(=O)N(c2ccc(Cl)cc2)C1(O)c1cccc(OC(F)(F)F)c1` (stereo partly drawn) [Compound 129-2, (5R)-1,3-bis(4-chlorophenyl)-4-hydroxy-5-methyl-4-(3-(trifluoromethoxy)phenyl)imidazolidin-2-one], less than 1 µM.
The same measure for `CC1N(c2ccc(F)cc2)C(=O)N(c2ccc(F)cc2)C1(O)c1cccc(OC(F)(F)F)c1` (stereo not drawn) [Compound 130, 1,3-bis(4-fluorophenyl)-4-hydroxy-5-methyl-4-(3-(trifluoromethoxy)phenyl)imidazolidin-2-one]: less than 1 µM.
In the case of `C[C@@H]1N(c2ccc(F)cc2)C(=O)N(c2ccc(F)cc2)C1(O)c1cccc(OC(F)(F)F)c1` (stereo partly drawn) [Compound 130-1, (5S)-1,3-bis(4-fluorophenyl)-4-hydroxy-5-methyl-4-(3-(trifluoromethoxy)phenyl)imidazolidin-2-one], the IC50 is less than 1 µM.
The result for `C[C@H]1N(c2ccc(F)cc2)C(=O)N(c2ccc(F)cc2)C1(O)c1cccc(OC(F)(F)F)c1` (stereo partly drawn) [Compound 130-2, (5R)-1,3-bis(4-fluorophenyl)-4-hydroxy-5-methyl-4-(3-(trifluoromethoxy)phenyl)imidazolidin-2-one] reads less than 1 µM.
On to `CCC1N(c2ccc(F)cc2)C(=O)N(c2ccc(F)cc2)C1(O)c1cccc(OC(F)(F)F)c1` (stereo not drawn) [Compound 131, 5-ethyl-1,3-bis(4-fluorophenyl)-4-hydroxy-4-(3-(trifluoromethoxy)phenyl)imidazolidin-2-one], for which the IC50 is less than 1 µM.
Turning to `N#Cc1cccc(C2(O)C(CC3CC3)N(c3ccc(Cl)cc3)C(=O)N2c2ccc(Cl)cc2)c1` (stereo not drawn) [Compound 132, 3-(1,3-bis(4-chlorophenyl)-5-(cyclopropylmethyl)-4-hydroxy-2-oxoimidazolidin-4-yl)benzonitrile], the IC50 is less than 1 µM.
The same measure for `CC1(C)N(c2ccc(Cl)cc2)C(=O)N(c2ccc(Cl)cc2)C1(O)c1cccc(OC(F)(F)F)c1` (stereo not drawn) [Compound 133, 1,3-bis(4-chlorophenyl)-4-hydroxy-5,5-dimethyl-4-(3-(trifluoromethoxy)phenyl)imidazolidin-2-one]: less than 1 µM.
The result for `CC1(C)N(c2ccc(Cl)cc2)C(=O)N(c2ccc(Cl)cc2)C1(O)c1cccc(C(F)(F)F)c1` (stereo not drawn) [Compound 134, 1,3-bis(4-chlorophenyl)-4-hydroxy-5,5-dimethyl-4-(3-(trifluoromethyl)phenyl)imidazolidin-2-one] reads less than 1 µM; that for `N#Cc1cccc(C2(O)N(c3ccc(Cl)cc3)C(=O)N(c3ccc(Cl)cc3)C23CCCC3)c1` (stereo not drawn) [Compound 135, 3-(1,3-bis(4-chlorophenyl)-4-hydroxy-2-oxo-1,3-diazaspiro[4.4]nonan-4-yl)benzonitrile], less than 1 µM; that for `CC(=O)c1cccc(C2(O)[C@@H](C)N(c3ccc(Cl)cc3)C(=O)N2c2ccc(Cl)cc2)c1` (stereo partly drawn) [Compound 136-2, (5R)-4-(3-acetylphenyl)-1,3-bis(4-chlorophenyl)-4-hydroxy-5-methylimidazolidin-2-one], less than 1 µM.
The same measure for `CC(O)c1cccc(C2(O)C(C)N(c3ccc(Cl)cc3)C(=O)N2c2ccc(Cl)cc2)c1` (stereo not drawn) [Compound 137, 1,3-bis(4-chlorophenyl)-4-hydroxy-4-(3-(1-hydroxyethyl)phenyl)-5-methylimidazolidin-2-one]: less than 1 µM.
